According to US10015967B2, “Form of isoxadifen-ethyl, a process for its preparation and use of the same” (ROTAM AGROCHEM INTERNATIONAL COMPANY LIMITED, priority 2015, dated 2018):

How the values were obtained:
[1] = Stability test: aging of formulation samples in heated ovens per CIPAC MT 46.3, isoxadifen-ethyl content by HPLC; assay type: physicochemical; details: for RPH % (relative percentage of hydrolysis): stored at 54° C. for 1 week
Description: The stability of the isoxadifen-ethyl in these compositions was determined by aging samples in heated ovens having the same atmosphere therein, and then comparing the isoxadifen-ethyl content before and after aging to determine relative percentage of hydrolysis (RPH). RPH was calculated by the following equation: […]
Isoxadifen-ethyl content was determined by assaying the compositions with high-pressure liquid chromatography (HPLC) using reverse phase columns and eluants.
Samples prepared in Examples 4, 5 and 6 were stored at 54° C. for 1 week. The procedures are followed according to CIPAC MT 46.3. The concentration of isoxadifen-ethyl was measured at the end of each storage time by HPLC.

[2] = Stability of isoxadifen-ethyl (hydrolysis in water or during storage), general statement; assay type: physicochemical; details: dissolved or dispersed in water; storage with exposure to moisture
[3] = Example 4 oil based suspension concentrate (OD) with tribenuron-methyl, 10 weight % isoxadifen-ethyl
[4] = Example 5 soluble granules (SG) with metsulfuron-methyl, 7 weight % isoxadifen-ethyl
[5] = Example 6 water dispersible granules (WG) with metsulfuron-methyl, 7 weight % isoxadifen-ethyl

CCOC(=O)C1=NOC(c2ccccc2)(c2ccccc2)C1 [Amorphous isoxadifen-ethyl, Ethyl 4,5-dihydro-5,5-diphenyl-3-isoxazolecarboxylate]
RPH % (relative percentage of hydrolysis) [1, 3]: 50% | RPH % (relative percentage of hydrolysis) [1, 4]: 40% | RPH % (relative percentage of hydrolysis) [1, 5]: 45% | stability (hydrolysis) [2]: highly unstable

CCOC(=O)C1=NOC(c2ccccc2)(c2ccccc2)C1 [Isoxadifen-ethyl, crystalline modification I] [Ethyl 4,5-dihydro-5,5-diphenyl-3-isoxazolecarboxylate]
RPH % (relative percentage of hydrolysis) [1, 3]: 0% | RPH % (relative percentage of hydrolysis) [1, 4]: 0% | RPH % (relative percentage of hydrolysis) [1, 5]: 0% | stability when mixing with sulfonylurea herbicides in formulations ([1]; relative to formulations containing the amorphous form): significant increase in its stability
